# Measured values published in patent US20260265700A1, “NEURAL BIOHYBRID MANUFACTURED USING REDUCED GRAPHENE OXIDE NANOPARTICLES, NEUROMUSCULAR JUNCTION MODEL USING SAME, AND DRUG SCREENING METHOD USING SAME” (Sogang University Research & Business Development Foundation, priority 2023, published 2026).
# Test system: NMJs manufactured using ALS neural biohybrids
# Experiment: Muscle bundle contraction in 3D ALS-neuromuscular junction model
# Format: cell-based, human
# Conditions: ALS-NMJ
# Procedure: First, a hydrogel used for the 3D muscle bundles was prepared using a mixture of 340 μl of C2C12, 30% Matrigel, 250 μl of 16 mg/ml […], 10 μl of thrombin (0.5 U/1 mg fibrinogen) and 100 μl of DMEM.
# After culturing for 4 days, the medium was replaced with DMEM supplemented with 2% horse serum, 100 U/mL penicillin-G, 100 μg/mL streptomycin, 1 mg/mL aminocaproic acid, and 1 ng/mL insulin growth factor-1 (IGF-1) as a muscle cell differentiation medium. The medium was changed every 2 days, and differentiation was carried out for 14 days or more.
# The co-culture differentiation medium, along with muscle differentiation medium, was supplemented with brain-derived and glial cell line-derived neurotrophic factors (10 ng/ml BDNF and 10 ng/ml GDNF) to support viability of multiple neural biohybrids. The differentiation medium was replaced every two days for two weeks.
structure (smiles),measurement,setting,value
COc1cc(Nc2c(C#N)cnc3cc(OCCCN4CCN(C)CC4)c(OC)cc23)c(Cl)cc1Cl [bosutinib],contraction of the muscle bundle relative to muscle movement of normal NMJs,"after 5 days of treatment, FIG. 3C",approximately 85%
same,concentration giving the greatest recovery of muscle movement,"various concentrations tested, FIGS. 3D and 3E",100 µM
